Data set [1] can be described thus: Microsome stability assay, human liver microsomes. In kind it is in vitro ADME. Particulars: 1 μM compound, 0.5 mg/mL microsomal protein. The procedure:
Compounds of the disclosure were screened in microsome stability assays. For the screen, test compounds were incubated at 37° C. with either human liver microsomes (Corning; #452117) or mouse liver microsomes (XenoTech; #M1000), pooled from multiple donors, at 1 μM in the presence of a NADPH regenerating system at 0.5 mg/mL microsomal protein. Positive controls included in the assay were testosterone (3A4 substrate), propafenone (2D6) and diclofenac (2C9). Samples were removed at different time points (0, 5, 10, 20, 30 and 60 minutes) and immediately mixed with cold acetonitrile containing internal standard (IS, 200 ng/mL tolbutamide and 200 ng/mL labetalol). Test compounds incubated with microsomes for 60 minutes without the NADPH regenerating system was also included. A single point for each test condition (n=1) was obtained, and samples were analyzed by LC/MS/MS. Disappearance of the test compound was assessed based on peak area ratios of analyte/IS (no standard curve).
For orientation: Liver microsomes are a subcellular fraction often used to study metabolism.

Data set [2] has as its target HSD17B13 (Homo sapiens (Human), UniProt Q7Z5P4). Kind of data set: HSD17B13 enzymatic inhibition assay (150 nM or 50 nM HSD17B13). The data set is classed as biochemical.
Where [3] appears, read: human, human liver microsomes, pooled, NADPH, 37° C., read-out: Microsome Stability Human liver microsomes Cl.
The mark [4] stands for this setting: human, human liver microsomes, pooled, NADPH, 37° C., read-out: Microsome Stability Human liver microsomes T½.
The mark [5] stands for this setting: 50 nM HSD17B13, read-out: Inhibition of 50 nM of HSD17B13 IC50.
Where [6] appears, read: 150 nM HSD17B13, read-out: Inhibition of 150 nM of HSD17B13 IC50.

The source of these data is patent US11957687B2 (REGENERON PHARMACEUTICALS, INC., priority 2019, dated 2024).

What is called IC50 is the point on the concentration scale where inhibition reaches its midpoint.

Read-outs that look alike come from different tables or passages of the source.

Chain of HSD17B13 (Q7Z5P4 other isoform, or with tags, fused parts or gaps): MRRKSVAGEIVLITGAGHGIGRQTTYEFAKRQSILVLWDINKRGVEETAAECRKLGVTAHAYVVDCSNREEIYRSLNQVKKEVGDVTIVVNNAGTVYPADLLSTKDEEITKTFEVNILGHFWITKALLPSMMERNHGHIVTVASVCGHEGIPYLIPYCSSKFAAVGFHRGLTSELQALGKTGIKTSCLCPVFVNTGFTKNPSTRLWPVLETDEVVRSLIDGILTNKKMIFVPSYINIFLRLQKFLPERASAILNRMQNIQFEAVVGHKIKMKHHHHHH

For `Cc1ccc(C(NC(=O)c2ccc(C(F)(F)F)[nH]c2=O)c2ccccc2)cc1C` (centres unmarked) [Compound 2A, N-((3,4-dimethylphenyl)(phenyl)methyl)-2-oxo-6-(trifluoromethyl)-1,2-dihydropyridine-3-carboxamide], the “Microsome Stability Human liver microsomes % Remaining @60 min” value in data set [1] turned out to be 0.10%. In data set [1] (setting [3]), the microsomal CLint at 1 h, 1 µM is 515 µL/min/mg. Further, the half-life at 1 h, 1 µM in data set [1] (setting [4]) amounted to 2.7 min. Further, the IC50 in data set [2] (setting [5]) came out at 0.28 µM; in data set [2] (setting [6]), 1.57 µM. Turning to `O=C(NC(c1ccccc1)c1ccc2c(c1)OCO2)c1ccc(C(F)(F)F)[nH]c1=O` (centres unmarked) [Compound 3, N-(benzo[d][1,3]dioxol-5-yl(phenyl)methyl)-2-oxo-6-(trifluoromethyl)-1,2-dihydropyridine-3-carboxamide], in data set [1], the “Microsome Stability Human liver microsomes % Remaining @60 min” value came to 1.00%. Moreover, in data set [1] (setting [3]), the microsomal CLint at 1 h, 1 µM was found to be 217 µL/min/mg. Further, the half-life at 1 h, 1 µM in data set [1] (setting [4]) is 6.39 min. For the same compound, in data set [2] (setting [6]), the IC50 is 1.31 µM. Consider `O=C(NC(c1ccccc1)c1cccc(C(F)(F)F)c1)c1ccc(C(F)(F)F)[nH]c1=O` (centres unmarked) [Compound 7, 2-oxo-N-(phenyl(3-(trifluoromethyl)phenyl)methyl)-6-(trifluoromethyl)-1,2-dihydropyridine-3-carboxamide], for which, in data set [1], the “Microsome Stability Human liver microsomes % Remaining @60 min” value came out at 101.00%. In addition, in data set [1] (setting [3]), the microsomal CLint at 1 μM is less than 9.6 µL/min/mg. In addition, the half-life at 1 μM in data set [1] (setting [4]) was greater than 145 min. In addition, in data set [2] (setting [5]), the IC50 is 3.09 µM. Take `CCc1cccc2c1CCCC2NC(=O)c1ccc(C(F)(F)F)[nH]c1=O` (centres unmarked) [Compound 530, N-(5-ethyl-1,2,3,4-tetrahydronaphthalen-1-yl)-2-oxo-6-(trifluoromethyl)-1,2-dihydropyridine-3-carboxamide]: the IC50 in data set [2] (setting [5]) was greater than 10 µM.

For `CCCc1cccc2c1CCCC2NC(=O)c1ccc(C(F)(F)F)[nH]c1=O` (centres unmarked) [Compound 531, 2-oxo-N-(5-propyl-1,2,3,4-tetrahydronaphthalen-1-yl)-6-(trifluoromethyl)-1,2-dihydropyridine-3-carboxamide], the IC50 in data set [2] (setting [5]) is greater than 10 µM. Same read-out and setting: in the case of `C=CCc1cccc2c1CCCC2NC(=O)c1ccc(C(F)(F)F)[nH]c1=O` (centres unmarked) [Compound 532, N-(5-allyl-1,2,3,4-tetrahydronaphthalen-1-yl)-2-oxo-6-(trifluoromethyl)-1,2-dihydropyridine-3-carboxamide] it was 5.2 µM; in that of `O=C(NC1c2ccc(Cl)cc2Oc2cc(Cl)ccc21)c1cnc(COc2cccc(C(F)(F)F)c2)[nH]c1=O` [Compound 534, N-(3,6-dichloro-9H-xanthen-9-yl)-6-oxo-2-((3-(trifluoromethyl)phenoxy)methyl)-1,6-dihydropyrimidine-5-carboxamide], 1.08 µM; in that of `Cc1ccc2c(c1)Sc1cc(C)ccc1C2NC(=O)c1cc(Br)c(C(F)(F)F)[nH]c1=O` [Compound 535, 5-bromo-N-(3,6-dimethyl-9H-thioxanthen-9-yl)-2-oxo-6-(trifluoromethyl)-1,2-dihydropyridine-3-carboxamide], 0.05 µM. The same measure, in the same setting: the value for `C=Cc1ccc2c(c1)C(NC(=O)c1ccc(C(F)(F)F)[nH]c1=O)c1ccccc1S2` (centres unmarked) [Compound 536, 2-oxo-6-(trifluoromethyl)-N-(2-vinyl-9H-thioxanthen-9-yl)-1,2-dihydropyridine-3-carboxamide] was 0.32 µM. The same measure, in the same setting: the value for `CCc1ccc2c(c1)C(NC(=O)c1ccc(C(F)(F)F)[nH]c1=O)c1ccccc1S2` (centres unmarked) [Compound 537, N-(2-ethyl-9H-thioxanthen-9-yl)-2-oxo-6-(trifluoromethyl)-1,2-dihydropyridine-3-carboxamide] was 0.15 µM; that for `C=Cc1cc(C(=O)NC2c3ccc(C)cc3Sc3cc(C)ccc32)c(=O)[nH]c1C(F)(F)F` [Compound 538, N-(3,6-dimethyl-9H-thioxanthen-9-yl)-2-oxo-6-(trifluoromethyl)-5-vinyl-1,2-dihydropyridine-3-carboxamide] was 0.04 µM.

With `C=CCc1cccc(C(NC(=O)c2ccc(C(F)(F)F)[nH]c2=O)c2ccccc2)c1` (centres unmarked) [Compound 539, N-((3-allylphenyl)(phenyl)methyl)-2-oxo-6-(trifluoromethyl)-1,2-dihydropyridine-3-carboxamide], in data set [2] (setting [5]), the IC50 is 0.74 µM. For the compound `CSc1cc(C)ccc1C(NC(=O)c1ccc(C(F)(F)F)[nH]c1=O)c1ccccc1` (centres unmarked) [Compound 540, N-((4-methyl-2-(methylthio)phenyl)(phenyl)methyl)-2-oxo-6-(trifluoromethyl)-1,2-dihydropyridine-3-carboxamide], the IC50 in data set [2] (setting [5]) is 1.13 µM. Same read-out and setting: in the case of `Cc1ccc2c(c1)O[C@@H]1CCCC[C@H]1[C@H]2NC(=O)c1ccc(C(F)(F)F)[nH]c1=O` [Compound 541, N-((4aR,9R,9aS)-6-methyl-2,3,4,4a,9,9a-hexahydro-1H-xanthen-9-yl)-2-oxo-6-(trifluoromethyl)-1,2-dihydropyridine-3-carboxamide] it was 0.06 µM; in that of `CCCC1=C(NC(=O)c2ccc(C(F)(F)F)[nH]c2=O)c2cc(C)ccc2C1=O` [Compound 542, N-(5-methyl-1-oxo-2-propyl-1H-inden-3-yl)-2-oxo-6-(trifluoromethyl)-1,2-dihydropyridine-3-carboxamide], 4.67 µM. Regarding `CCCC1=C(NC(=O)c2ccc(C(F)(F)F)[nH]c2=O)c2cc(C)ccc2C1O` (centres unmarked) [Compound 544, N-(1-hydroxy-5-methyl-2-propyl-1H-inden-3-yl)-2-oxo-6-(trifluoromethyl)-1,2-dihydropyridine-3-carboxamide], the IC50 in data set [2] (setting [5]) worked out at 1.15 µM. On to `Cc1ccc2c(c1)N(C(=O)OC(C)(C)C)CCC2NC(=O)c1ccc(C(F)(F)F)[nH]c1=O` (centres unmarked) [Compound 546, tert-butyl 7-methyl-4-(2-oxo-6-(trifluoromethyl)-1,2-dihydropyridine-3-carboxamido)-3,4-dihydroquinoline-1(2H)-carboxylate], for which, in data set [2] (setting [5]), the IC50 is greater than 10 µM. Same read-out and setting: in the case of `C=Cc1cccc2c1CCCC2NC(=O)c1ccc(C(F)(F)F)[nH]c1=O` (centres unmarked) [Compound 547, 2-oxo-6-(trifluoromethyl)-N-(5-vinyl-1,2,3,4-tetrahydronaphthalen-1-yl)-1,2-dihydropyridine-3-carboxamide] it was 6.24 µM; in that of `O=C(NC1CCCc2c(/C=C/c3ccccc3)cccc21)c1ccc(C(F)(F)F)[nH]c1=O` (centres unmarked) [Compound 548, (E)-2-oxo-N-(5-styryl-1,2,3,4-tetrahydronaphthalen-1-yl)-6-(trifluoromethyl)-1,2-dihydropyridine-3-carboxamide], 9.28 µM. In the case of `N#Cc1cccc2c1CCCC2NC(=O)c1ccc(C(F)(F)F)[nH]c1=O` (centres unmarked) [Compound 549, N-(5-cyano-1,2,3,4-tetrahydronaphthalen-1-yl)-2-oxo-6-(trifluoromethyl)-1,2-dihydropyridine-3-carboxamide], the IC50 in data set [2] (setting [5]) was determined as 8.37 µM. The same measure, in the same setting: in the case of `Cc1ccc(C(CC2CCCO2)NC(=O)c2ccc(C(F)(F)F)[nH]c2=O)cc1` (centres unmarked) [Compound 550, 2-oxo-N-(2-(tetrahydrofuran-2-yl)-1-(p-tolyl)ethyl)-6-(trifluoromethyl)-1,2-dihydropyridine-3-carboxamide] it was 1.6 µM; in that of `Cc1ccc(C(CC2CCOCC2)NC(=O)c2ccc(C(F)(F)F)[nH]c2=O)cc1` (centres unmarked) [Compound 551, 2-oxo-N-(2-(tetrahydro-2H-pyran-4-yl)-1-(p-tolyl)ethyl)-6-(trifluoromethyl)-1,2-dihydropyridine-3-carboxamide], 2.69 µM; in that of `CC[C@H](C[C@@H](NC(=O)c1ccc(C(F)(F)F)[nH]c1=O)c1ccc(C)cc1)OC` [Compound 552, N-((1R,3R)-3-methoxy-1-(p-tolyl)pentyl)-2-oxo-6-(trifluoromethyl)-1,2-dihydropyridine-3-carboxamide], 0.59 µM. On the same count and under the same terms, the value for `CC[C@@H](C[C@@H](NC(=O)c1ccc(C(F)(F)F)[nH]c1=O)c1ccc(C)cc1)OC` [Compound 553, N-((1R,3S)-3-methoxy-1-(p-tolyl)pentyl)-2-oxo-6-(trifluoromethyl)-1,2-dihydropyridine-3-carboxamide] was 2.08 µM.

`CC[C@@H](O)C[C@@H](NC(=O)c1ccc(C(F)(F)F)[nH]c1=O)c1ccc(C)cc1` [Compound 554, N-((1R,3R)-3-hydroxy-1-(p-tolyl)pentyl)-2-oxo-6-(trifluoromethyl)-1,2-dihydropyridine-3-carboxamide]: the IC50 in data set [2] (setting [5]) was 2.35 µM. On the same count and under the same terms, the value for `CC[C@H](O)C[C@@H](NC(=O)c1ccc(C(F)(F)F)[nH]c1=O)c1ccc(C)cc1` [Compound 555, N-((1R,3S)-3-hydroxy-1-(p-tolyl)pentyl)-2-oxo-6-(trifluoromethyl)-1,2-dihydropyridine-3-carboxamide] was greater than 10 µM; that for `Cc1ccc(C(CC2CCOC2)NC(=O)c2ccc(C(F)(F)F)[nH]c2=O)cc1` (centres unmarked) [Compound 556, 2-oxo-N-(2-(tetrahydrofuran-3-yl)-1-(p-tolyl)ethyl)-6-(trifluoromethyl)-1,2-dihydropyridine-3-carboxamide] was 2.35 µM; that for `Cc1ccc(C(NC(=O)c2ccc(C(F)(F)F)[nH]c2=O)C2CCOCC2)cc1` (centres unmarked) [Compound 558, 2-oxo-N-((tetrahydro-2H-pyran-4-yl)(p-tolyl)methyl)-6-(trifluoromethyl)-1,2-dihydropyridine-3-carboxamide] was 4.57 µM.
